Measured values published in PubChem BioAssay (NCI).
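Protocol summary: plate cells (96-well), add compound at 5 concentrations, incubate 48 h, interpolate endpoints linearly. GI50 is the concentration that inhibits growth by half. The concentration for full growth arrest is given as TGI.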

Columns and labels:
Assay in all cases: inhibition of tumour cell growth, NCI panel, 48 h; in the data active = GI50 below about 0.43 µM; inactive = the rest
[1] = system: HL-60(TB) leukemia
[2] = system: SK-OV-3 ovarian
[3] = system: KM12 colon
[4] = system: NCI-H460 lung
[5] = system: HT29 colon
[6] = system: 786-0 renal
[7] = system: A498 renal
[8] = system: MCF7 breast
[9] = system: OVCAR-3 ovarian
[10] = system: LOX IMVI melanoma
[11] = system: HOP-62 NSCLC
[12] = system: EKVX NSCLC
[13] = system: SF-539 CNS
[14] = system: BT-549 breast
[15] = system: SK-MEL-28 melanoma
[16] = system: HCT-116 colon
[17] = system: OVCAR-5 ovarian
[18] = system: HCT-15 colon
[19] = system: K-562 leukemia
[20] = system: SNB-75 CNS
[21] = system: HOP-92 NSCLC
[22] = system: OVCAR-8 ovarian
[23] = system: NCI-H23 lung
[24] = system: IGROV1 ovarian
[25] = system: CCRF-CEM leukemia
[26] = system: MALME-3M melanoma
[27] = system: CAKI-1 renal
[28] = system: SNB-19 CNS
[29] = system: SR leukemia

C[C@H]1Oc2cc(cnc2N)-c2c(nn(C)c2C#N)CN(C)C(=O)c2ccc(F)cc21
> 54.2 µM: TGI [21]
active: GI50 [3] 0.275 µM
> 87 µM: TGI [2]
> 30.6 µM: TGI [7]
inactive: GI50 [1] > 100 µM | GI50 [2] 22.1 µM | GI50 [4] 28.2 µM | GI50 [5] 5.76 µM | GI50 [6] 36.2 µM | GI50 [7] 0.452 µM | GI50 [8] 5.42 µM | GI50 [9] > 89.3 µM | GI50 [10] 40.5 µM | GI50 [11] 23 µM | GI50 [12] 16 µM | GI50 [13] 59.5 µM | GI50 [14] > 100 µM | GI50 [15] 50.3 µM | GI50 [16] 22.9 µM | GI50 [17] 5.24 µM | GI50 [18] 47 µM | GI50 [19] > 100 µM | GI50 [20] 21.7 µM | GI50 [21] 2.54 µM | GI50 [22] 98 µM | GI50 [23] 59.1 µM | GI50 [24] 28.1 µM | GI50 [25] > 100 µM | GI50 [26] 18.8 µM | GI50 [27] 18.3 µM | GI50 [28] > 100 µM
> 100 µM: TGI [1] | TGI [3] | TGI [4] | TGI [5] | TGI [6] | TGI [8] | TGI [9] | TGI [10] | TGI [11] | TGI [12] | TGI [13] | TGI [14] | TGI [15] | TGI [16] | TGI [17] | TGI [18] | TGI [19] | TGI [20] | TGI [22] | TGI [23] | TGI [24] | TGI [25] | TGI [26] | TGI [27] | TGI [28] | TGI [29]
